Experiment [1] in a line: Rat Cantharidin Screen (topical anti-inflammatory activity). The settings on record: 72 hrs. The format is in vivo. The method, then:
Compounds were tested for topical anti-inflammatory activity in a cantharidin rat ear screen, by a method described by A. Boris et al, [J. Invest. Dermatol. 68, 161 (1977)].
Cantharidin (450 μg) in a suitable solvent, such as methanol or tetrahydrofuran applied topically to one rat ear, causes severe inflammation giving approximately double the normal weight at 72 hrs. compared to the other, untreated ear. The test compounds were applied simultaneously with cantharidin in tetrahydrofuran.

A short description of experiment [2]: Mouse Oxazolone Screen (topical anti-inflammatory activity). The format is in vivo. The settings on record: 24 hr after challenge; for inhibition in vivo at 100 µg/ear: 100 μg/ear; for inhibition in vivo at 200 µg/ear: 200 μg/ear. The method, then:
Compounds were tested for topical anti-inflammatory activity in a mouse oxazolone screen, by a method modified from that of Dietrich and Hess [Int. Arch. Allergy, 38, 246 (1970)].
Mice were sensitised with oxazolone (2 mg in EtOH) on a shaved area of the abdomen, and then challenged with oxazolone (100 μg) with or without the test compound on the left ear 5 days later.

Experiment [3] is described as follows: Croton Oil Test (topical anti-inflammatory activity). The settings on record: 1 mg/ear, 6 hours. The format is in vivo, rat (Charles River Wistar). The method, then:
Compounds were tested for anti-inflammatory activity in a topical model based on that described by Fregnan G. B. and Torsello, A. L. (1975), Current Therapeutic Research 17, No. 4, 375-381. In outline the method is as follows:
Rats, Charles River Wistar Strain, female, 10/group. Weight range 200-240 g.
Irritant solution applied consists of 1% croton oil in tetrahydrofuran. 0.05 ml is placed on each ear, compound being included in the irritant solution on one ear. 6 hours later the ears are removed by cutting along the hairline and weighed.
-ve control--no irritant solution.
+ve control--irritant solution on both ears.

Experiment [4] is described as follows: Carrageenin Test (paw volume). The format is in vivo, rat (OLAC Wistar). Conditions: 3 hours after carrageenin. The procedure:
Groups of 8 OLAC Wistar male rats (140-170 g) received the Compounds orally 1 hour before 0.1 ml of 0.5% λ carrageenin injected into the right hind paw. Paw volumes were measured by mercury displacement 3 hours after carrageenin.
In general terms: In the carrageenan paw model, swelling and tenderness develop within hours.

The nature of experiment [5]: Quinone Quantal Writhing Test (analgesic activity). The format is in vivo. Conditions: 50 mg/kg po. The method, then:
L. C. Hendershot and J. Fersaith, J. Pharmac. exp. Therap. 1959, 125, 237-240.
Compounds 1 and 2 had analgesic activity giving 10 and 50 percent inhibition respectively at a dose of 50 mg/kg po.

The conditions of experiment [6]: in mice; cited from earlier work.

Data on 18 compounds can be found in patent publication US4559348A, “5- And/or 7-substituted pyrazolo-[4,3-b]-pyridines and their use as antiinflammatory agents” (Beecham Group, p.l.c., priority 1983, dated 1985).

Turning to `CCCCNc1cc(C)nc2cn[nH]c12` [Compound 10, 7-n-Butylamino-5-methyl-1H-pyrazolo[4,3-b]pyridine], in experiment [1] (0.5 mg/ear), the inhibition in vivo (as a rule, the drop in the measured response relative to a control, in per cent) at 0.5 mg/ear worked out at 76%. The inhibition in vivo at 100 µg/ear in experiment [2] stood at 54%.

In the case of `Cc1cc(Nc2ccccc2)c2nn(C)cc2n1` [Compound 5, 7-Anilino-2,5-dimethyl-2H-pyrazolo(4,3-b)pyridine], the inhibition in vivo at 2 mg/ear in experiment [1] came to 44%. The inhibition in vivo at 200 µg/ear in experiment [2] amounted to 63%.

In experiment [1], `Cc1cc(NC2CCCCC2)c2[nH]ncc2n1` [Compound 11, 7-Cyclohexylamino-5-methyl-1H-pyrazolo[4,3-b]pyridine] returned an inhibition in vivo at 1 mg/ear of 66%.

Compound `COc1ccc(Nc2cc(C)nc3cn[nH]c23)cc1` [Compound 15, 7-(4-Methoxyanilino)-5-methyl-1H-pyrazolo[4,3-b]pyridine] had an inhibition in vivo at 1 mg/ear in experiment [1] of 41%.

As to `Cc1cc(Sc2ccccc2)c2[nH]ncc2n1` [Compound 9, 5-Methyl-7-phenylthio-1H-pyrazolo[4,3-b]pyridine], the inhibition in vivo at 1 mg/ear in experiment [1] stood at 40%. In experiment [2], the inhibition in vivo at 100 µg/ear is 61%.

`Cc1cc(Nc2ccccc2)c2[nH]ncc2n1` [Compound 4, 7-Anilino-5-methyl-1H-pyrazolo(4,3-b)pyridine] came in with an inhibition in vivo at 1 mg/ear in experiment [1] of 42%. Besides, the % Inhibition (as a rule, the share of the control response that was lost under treatment) in experiment [3] is 71.7%; in experiment [4] (75 mg/kg orally), 40.2%. The compound also showed an inhibition in vivo at 200 µg/ear in experiment [2] of 81%.

`CCOc1cccc(Nc2cc(C)nc3cn[nH]c23)c1` [Compound 12, 7-(3-Ethoxyanilino)-5-methyl-1H-pyrazolo[4,3-b]pyridine] came in with an inhibition in vivo at 1 mg/ear in experiment [1] of 41%.

Turning to `Cc1cc(N2CCCCC2)c2[nH]ncc2n1` [Compound 2, 5-Methyl-7-piperidino-1H-pyrazolo(4,3-b)pyridine], the “% Inhibition” value in experiment [3] came to 34.8%; in experiment [4] (81 mg/kg orally), 41.7%. In experiment [5], the “percent inhibition (analgesic activity)” value was determined as 50%.

As to `CCOc1ccc(Nc2cc(C)nc3cn[nH]c23)cc1` [Compound 7, 7-(4-Ethoxyanilino)-5-methyl-1H-pyrazolo[4,3-b]pyridine], the inhibition in vivo at 2 mg/ear in experiment [1] amounted to 25%. In experiment [2], this compound registered an inhibition in vivo at 100 µg/ear of 56%.

In experiment [2], `Cc1ccc(Sc2cc(C)nc3cn[nH]c23)cc1` [Compound 3, 5-Methyl-7-(p-tolythio)-1H-pyrazolo(4,3-b)pyridine] returned an inhibition in vivo at 200 µg/ear of 37%.

Compound `Cc1cc(Nc2ccc(C(C)(C)C)cc2)c2[nH]ncc2n1` [Compound 22, 5-Methyl-7-p-t-butylanilino-1H-pyrazolo[4,3-b]pyridine] showed an inhibition in vivo at 1 mg/ear in experiment [1] of 68%.

`Cc1cc(Nc2ccc(Cl)cc2)c2[nH]ncc2n1` [Compound 14, 7-(4-Chloroanilino)-5-methyl-1H-pyrazolo[4,3-b]pyridine] registered an inhibition in vivo at 2 mg/ear in experiment [1] of 27%.

For the compound `CC(=O)N(C(C)=O)c1cc(C)nc2c(C)n[nH]c12` [The compound wherein R is NAc2], the CNS antidepressant activity entry in experiment [6] is recorded as “having CNS antidepressant activity”.

`Cc1cc(N(C)c2ccccc2)c2[nH]ncc2n1` [Compound 17, 7-(N-Methylanilino)-5-methyl-1H-pyrazolo[4,3-b]pyridine]: the inhibition in vivo at 1 mg/ear in experiment [1] turned out to be 31%. Moreover, the inhibition in vivo at 100 µg/ear in experiment [2] was determined as 32%.

As for `c1cc2[nH]ncc2nc1N1CCCCC1` [Compound 1, 5-Piperidino-1H-pyrazolo(4,3-b)pyridine], the figures for the “% Inhibition” value in experiment [3] and in experiment [4] (88 mg/kg orally) were 32.9% and 34%, respectively. In addition, the “percent inhibition (analgesic activity)” value in experiment [5] came out at 10%.

In experiment [1], `c1ccc(Nc2ccnc3cn[nH]c23)cc1` [Compound 19, 7-Anilino-1H-pyrazolo[4,3-b]pyridine] showed an inhibition in vivo at 1 mg/ear of 50%.

Take `Cc1cc(Nc2ccccc2C)c2[nH]ncc2n1` [Compound 8, 7-(2-Methylanilino)-5-methyl-1H-pyrazolo[4,3-b]pyridine]: the inhibition in vivo at 0.9 mg/ear in experiment [1] (0.9 mg/ear) came out at 56%. Moreover, in experiment [2], the inhibition in vivo at 100 µg/ear was found to be 31%.

The compound `Cc1cc(Nc2ccc(Cl)c(Cl)c2)c2[nH]ncc2n1` [Compound 24, 7-(3,4-Dichloroanilino)-5-methyl-1H-pyrazolo[4,3-b]pyridine] registered an inhibition in vivo at 1 mg/ear in experiment [1] of 29%.
